# Reference: patent US20260152484A1, “HETEROCYCLIC COMPOUNDS AS TRIGGERING RECEPTOR EXPRESSED ON MYELOID CELLS 2 AGONISTS” (Vigil Neuroscience, Inc., priority 2021, published 2026)
# Target: T1, human TREM2 (Homo sapiens, UniProt Q9NZC2)
# T1 construct: expressed in transfected cells; host or cells: HEK293T (HEK293T-hTREM2 cells)
# Assay: Cellular phosphorylation of Syk (AlphaLisa) in HEK293T-hTREM2 cells, TREM2 agonist potency
# Format: cell-based
# Conditions: HEK293 cells expressing human TREM2 and DAP12; pSyk AlphaLisa; Table D
# Method: In Vitro Measurement of Triggering Receptor Expressed on Myeloid Cells 2 Activity Using Cellular Phosphorylation of Spleen Tyrosine Kinase (“Syk”) Assays
# Measurement of TREM2 agonist potency was done using a HEK cell line expressing human TREM2 and DAP12 (HEK293T-hTREM2 cells). Binding of small molecules to, and activation of, TREM2 increases the phosphorylation of Syk. The resultant levels of Syk phosphorylation are measured using a commercial AlphaLisa reagent kit. To perform the assay, HEK-hTREM2 cells were plated at 14,000 cells per well in a 384 well plate, in 25 μL of complete growth media and incubated at 37° C., 5% CO2 for 20-24 hours.
# Prior to the assay, test compounds were diluted in the 384 well plates in assay buffer and allowed to equilibrate for 30 minutes. Growth media was removed from cell plates by inversion on blotting paper, and 25 μL of test articles in assay buffer was added to cells. Cells were incubated for 45 minutes at room temperature. After 45 minutes, assay buffer was removed and 10 μL of lysis buffer was added. Plates were shaken for 20 minutes at 350 RPM at room temperature. After complete lysis, AlphaLisa reagents were added to the lysate, and fluourescence intensity was measured using a Perkin Elmer Envision plate reader. Intensities were used to generate a standard curve, and % activation was calculated. Curve fitting was performed using Prism v9 software, log(agonist) vs response—variable slope (four parameters), and EC50s were calculated from the curve fit.
# The results presented in Table D have been generated with the in vitro assay described above. This assay may be used to test any of the compounds described herein to assess and characterize a compound's ability to act as an agonist of TREM2.
# T1 sequence (Q9NZC2 19-230): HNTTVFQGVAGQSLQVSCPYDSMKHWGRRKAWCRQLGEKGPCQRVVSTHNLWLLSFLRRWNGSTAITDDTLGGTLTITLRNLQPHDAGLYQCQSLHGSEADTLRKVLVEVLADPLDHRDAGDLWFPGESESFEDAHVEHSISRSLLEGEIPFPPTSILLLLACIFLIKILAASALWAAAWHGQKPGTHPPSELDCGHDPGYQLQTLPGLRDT
# T1 sequence (O43914 22-113 partner): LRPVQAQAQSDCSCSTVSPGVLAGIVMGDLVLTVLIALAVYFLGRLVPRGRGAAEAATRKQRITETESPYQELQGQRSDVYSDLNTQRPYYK
row,EC50,SMILES
1,3 to 100 µM,"Cc1nc2c(=O)n(CC(O)c3ccc(Cl)cc3)nc(-c3ccc(Cl)cc3)c2s1 (centres unmarked) [compound 26, 7-(4-chlorophenyl)-5-(2-(4-chlorophenyl)-2-hydroxyethyl)-2-methylthiazolo[4,5-d]pyridazin-4(5H)-one]"
2,3 to 100 µM,"Cc1nc2c(=O)n(C(C)c3ccc(Cl)cc3)nc(-c3ccc(Cl)cc3)c2s1 (centres unmarked) [compound 27, 7-(4-chlorophenyl)-5-(1-(4-chlorophenyl)ethyl)-2-methylthiazolo[4,5-d]pyridazin-4(5H)-one]"
3,3 to 100 µM,"Cc1nc2c(=O)n(CCc3ccccc3)nc(-c3ccc(Cl)cc3)c2s1 [compound 28, 7-(4-chlorophenyl)-2-methyl-5-phenethylthiazolo[4,5-d]pyridazin-4(5H)-one]"
4,3 to 100 µM,"Cc1nc2c(=O)n(CCc3ccccc3)nc(-c3ccccc3)c2s1 [compound 29, 2-methyl-5-phenethyl-7-phenylthiazolo[4,5-d]pyridazin-4(5H)-one]"
5,3 to 100 µM,"Cc1nc2c(=O)n(C(C)Cc3ccc(Cl)cc3)nc(-c3ccc(Cl)cc3)c2s1 (centres unmarked) [compound 30, 7-(4-chlorophenyl)-5-(1-(4-chlorophenyl)propan-2-yl)-2-methylthiazolo[4,5-d]pyridazin-4 (5H)-one]"
6,3 to 100 µM,"Cc1nc2c(=O)n(CC(C)c3ccc(Cl)cc3)nc(-c3ccc(Cl)cc3)c2s1 (centres unmarked) [compound 31, 7-(4-chlorophenyl)-5-(2-(4-chlorophenyl)propyl)-2-methylthiazolo[4,5-d]pyridazin-4(5H)-one]"
7,3 to 100 µM,"Cc1nc2c(=O)n(CCc3ccccc3)nc(-c3ccc(Cl)c(Cl)c3)c2s1 [compound 32, 7-(3,4-dichlorophenyl)-2-methyl-5-phenethylthiazolo[4,5-d]pyridazin-4(5H)-one]"
8,3 to 100 µM,"Nc1nc2c(=O)n(CCc3ccccc3)nc(-c3ccc(Cl)cc3)c2s1 [compound 33, 2-amino-7-(4-chlorophenyl)-5-phenethylthiazolo[4,5-d]pyridazin-4(5H)-one]"
9,3 to 100 µM,"Cc1ccc(-c2nn(CCc3ccccc3)c(=O)c3nc(C)sc23)cc1 [compound 34, 2-methyl-5-phenethyl-7-(p-tolyl)thiazolo[4,5-d]pyridazin-4(5H)-one]"
10,3 to 100 µM,"CC(C)C(=O)Nc1nc2c(=O)n(CCc3ccccc3)nc(-c3ccc(Cl)cc3)c2s1 [compound 35, N-[7-(4-chlorophenyl)-4-oxo-5-(2-phenylethyl)thiazolo[4,5-d]pyridazin-2-yl]-2-methyl-propanamide]"
11,3 to 100 µM,"O=c1c2nc(NCC3CC3)sc2c(-c2ccc(Cl)cc2)nn1CCc1ccccc1 [compound 36, 7-(4-chlorophenyl)-2-(cyclopropylmethylamino)-5-(2-phenylethyl)thiazolo[4,5-d]pyridazin-4-one]"
12,3 to 100 µM,"O=c1c2nc(NCCc3ccccc3)sc2c(-c2ccc(Cl)cc2)nn1CCc1ccccc1 [compound 37, 7-(4-chlorophenyl)-5-(2-phenylethyl)-2-(2-phenylethylamino)thiazolo[4,5-d]pyridazin-4-one]"
13,3 to 100 µM,"Cc1nc2c(=O)n(-c3ccc(C(=O)NC(C)C)cc3)nc(-c3ccc(Cl)cc3)c2s1 [compound 38, 4-(7-(4-chlorophenyl)-2-methyl-4-oxothiazolo[4,5-d]pyridazin-5(4H)-yl)-N-isopropylbenzamide]"
14,3 to 100 µM,"Cc1nc2c(=O)n(CCc3ccccc3)nc(-c3ccc(O)cc3)c2s1 [compound 39, 7-(4-hydroxyphenyl)-2-methyl-5-phenethylthiazolo[4,5-d]pyridazin-4(5H)-one]"
15,3 to 100 µM,"COc1ccc(-c2nn(CCc3ccccc3)c(=O)c3nc(C)sc23)cc1 [compound 40, 7-(4-methoxyphenyl)-2-methyl-5-phenethylthiazolo[4,5-d]pyridazin-4(5H)-one]"
16,3 to 100 µM,"Cc1nc2c(=O)n(-c3ccc(OC(F)(F)F)cc3)nc(-c3ccc(Cl)cc3)c2s1 [compound 41, 7-(4-chlorophenyl)-2-methyl-5-(4-(trifluoromethoxy)phenyl)thiazolo[4,5-d]pyridazin-4(5H)-one]"
17,0.05 to 0.5 µM,"Cc1nc2c(=O)n(-c3ccc(C(=O)O)cc3)nc(-c3ccc(Cl)cc3)c2s1 [compound 42, 4-(7-(4-chlorophenyl)-2-methyl-4-oxothiazolo[4,5-d]pyridazin-5(4H)-yl)benzoic acid]"
